Our source for the inhibition values is patent publication US7605272B2, “IGF-1R inhibitor” (Kyowa Hakko Kirin Co., Ltd., priority 2005, dated 2009).

Each structure is given as a SMILES string. Structures can show the parent of a compound that is named as a salt. Where two headings read alike, the source gives them in different places.

Experiment [1] concerns NCI-H929. In words: Cytostatic activity on human multiple myeloma cell line NCI-H929 (WST-1). The following applies: Homo sapiens, 10 μmol/L, 72 hours, read-out: cytostatic rate (%) H929 (10 μmol/L). It counts as cell-based. In outline:
(§1)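 Cytostatic rate is 100 minus % growth relative to DMSO-only wells (100%) and blank wells (0%), read by WST-1 absorbance at 450/690 nm after 2 h. Compound at 1 or 10 μmol/L final was applied for 72 h at 37 °C to cells seeded 24 h earlier.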

Experiment [2] concerns KMS-11. In words: Cytostatic activity on human multiple myeloma cell line KMS-11 (WST-1). Format: cell-based. Conditions: Homo sapiens, 10 μmol/L, 72 hours, read-out: cytostatic rate (%) KMS-11 (10 μmol/L). The gist of the method:
as §1

Experiment [3] deals with T1, IGF-1R (Homo sapiens, UniProt P08069).
T1 construct: purchased Upstate Co. 14-465
T1 sequence (P08069 959-1367 limits assumed): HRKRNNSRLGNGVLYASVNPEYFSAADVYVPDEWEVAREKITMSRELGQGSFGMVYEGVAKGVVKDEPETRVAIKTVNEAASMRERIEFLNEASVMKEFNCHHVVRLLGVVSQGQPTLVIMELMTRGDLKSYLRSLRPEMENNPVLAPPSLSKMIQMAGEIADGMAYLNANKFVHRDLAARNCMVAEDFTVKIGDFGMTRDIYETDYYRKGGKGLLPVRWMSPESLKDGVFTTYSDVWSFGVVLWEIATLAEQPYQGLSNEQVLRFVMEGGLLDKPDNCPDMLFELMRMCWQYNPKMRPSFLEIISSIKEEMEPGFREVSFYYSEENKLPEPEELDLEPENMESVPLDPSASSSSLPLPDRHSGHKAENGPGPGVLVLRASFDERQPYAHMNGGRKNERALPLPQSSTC
Kind of experiment: IGF-1R inhibitory activity (kinase reaction, time-resolved fluoroimmunoassay). It counts as biochemical. Conditions: test compound 10 μmol/L. In outline:
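Compounds were tested at a single 10 μmol/L concentration. Each was incubated with recombinant IGF-1R (200 μg/L), 10 mmol/L ATP, MgCl2/MnCl2 and Na3VO4 (pH 7.5) on immobilized poly(Glu-Tyr) peptide for 30 min at 24° C. Eu-anti-phosphotyrosine time-resolved fluorescence (340/615 nm) gave relative activity against no-compound and no-enzyme wells, reported as % inhibition.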

The mark [4] stands for this setting: IGF-1R active recombinant enzyme.

Consider `Cn1cc(N)cc1C(=O)Nc1ccccc1/C=C/c1n[nH]c2ccccc12` [Compound 76, (E)-4-amino-N-{2-[2-(1H-indazol-3-yl)vinyl]phenyl}-1-methyl-1H-pyrrole-2-carboxamide trifluoroacetate], for which the inhibition at 10 µM in experiment [1] (NCI-H929, 72 h) is 109%; in experiment [2] (KMS-11, 72 h) it was 126%; in experiment [3] (setting [4]), 99.2%.

Consider `O=C(Nc1ccccc1/C=C/c1n[nH]c2ccccc12)c1ccc(O)cc1` [Compound 77, (E)-4-hydroxy-N-{2-[2-(1H-indazol-3-yl)vinyl]phenyl}benzamide], for which the inhibition at 10 µM in experiment [1] (NCI-H929, 72 h) stood at 111%; in experiment [2] (KMS-11, 72 h) it was 126%; in experiment [3] (setting [4]), 101%.

Take `COCCOc1ccc(C(=O)Nc2ccccc2/C=C/c2n[nH]c3ccccc23)cc1` [Compound 78, (E)-N-{2-[2-(1H-indazol-3-yl)vinyl]phenyl}-4-(2-methoxyethoxy)benzamide]: the inhibition at 10 µM in experiment [1] (NCI-H929, 72 h) came to 114%; in experiment [2] (KMS-11, 72 h), 107%; in experiment [3] (setting [4]), 100%.

Turning to `N#Cc1ccc(C(=O)Nc2ccccc2/C=C/c2n[nH]c3ccccc23)cc1` [Compound 83, (E)-4-cyano-N-{2-[2-(1H-indazol-3-yl)vinyl]phenyl}benzamide], the inhibition at 10 µM in experiment [1] (NCI-H929, 72 h) was 114%; in experiment [2] (KMS-11, 72 h), 107%; in experiment [3], 96.3%.

As for `Nc1ccc(C(=O)Nc2ccccc2/C=C/c2n[nH]c3ccccc23)c(Cl)c1` [Compound 84, (E)-4-amino-2-chloro-N-{2-[2-(1H-indazol-3-yl)vinyl]phenyl}benzamide], the inhibition at 10 µM was 113% in experiment [1] (NCI-H929, 72 h); 107% in experiment [2] (KMS-11, 72 h); 100% in experiment [3].

Regarding `CC(=O)N1CCN(C(=O)c2ccc(/C=C/c3n[nH]c4ccccc34)c(NC(=O)Cc3cccs3)c2)CC1` [Compound 89, (E)-N-{5-(4-acetylpiperazin-1-ylcarbonyl)-2-[2-(1H-indazol-3-yl)vinyl]phenyl}-2-(thiophen-2-yl)acetamide], the inhibition at 10 µM amounted to 114% in experiment [1] (NCI-H929, 72 h); 138% in experiment [2] (KMS-11, 72 h); 98.4% in experiment [3].

As for `CC(=O)N1CCN(C(=O)c2ccc(/C=C/c3n[nH]c4ccccc34)c(NC(=O)c3cc4ccccc4s3)c2)CC1` [Compound 90, (E)-N-{5-(4-acetylpiperazin-1-ylcarbonyl)-2-[2-(1H-indazol-3-yl)vinyl]phenyl}benzo[b]thiophene-2-carboxamide], the inhibition at 10 µM in experiment [1] (NCI-H929, 72 h) is 114%; in experiment [2] (KMS-11, 72 h), 136%; in experiment [3], 97%.

As for `CC(=O)N1CCN(C(=O)c2ccc(/C=C/c3n[nH]c4ccccc34)c(NC(=O)c3cccn3C)c2)CC1` [Compound 91, (E)-N-{5-(4-acetylpiperazin-1-ylcarbonyl)-2-[2-(1H-indazol-3-yl)vinyl]phenyl}-1-methyl-1H-pyrrole-2-carboxamide], the inhibition at 10 µM in experiment [1] (NCI-H929, 72 h) worked out at 115%; in experiment [2] (KMS-11, 72 h), 144%; in experiment [3] it was 98.7%.

`COc1cccc(/C=C/c2n[nH]c3ccccc23)c1NC(=O)c1sccc1C` [Compound 94, (E)-N-{2-[2-(1H-indazol-3-yl)vinyl]-6-methoxyphenyl}-3-methylthiophene-2-carboxamide]: the inhibition at 10 µM in experiment [1] (NCI-H929, 72 h) worked out at 125%; in experiment [2] (KMS-11, 72 h) it was 143%; in experiment [3], 95.4%.

Turning to `COc1cc(/C=C/c2n[nH]c3ccccc23)c(NC(=O)c2sccc2C)cc1OC` [Compound 95, (E)-N-{2-[2-(1H-indazol-3-yl)vinyl]-4,5-dimethoxyphenyl}-3-methylthiophene-2-carboxamide], the inhibition at 10 µM was determined as 121% in experiment [1] (NCI-H929, 72 h); 138% in experiment [2] (KMS-11, 72 h); 97.2% in experiment [3].

As for `COc1cc(/C=C/c2n[nH]c3ccccc23)c(NC(=O)c2cccn2C)cc1OC` [Compound 96, (E)-N-{2-[2-(1H-indazol-3-yl)vinyl]-4,5-dimethoxyphenyl}-1-methyl-1H-pyrrole-2-carboxamide], the inhibition at 10 µM worked out at 117% in experiment [1] (NCI-H929, 72 h); 117% in experiment [2] (KMS-11, 72 h); 100% in experiment [3].

For `Cc1ccsc1C(=O)Nc1cc(N(C)C)ccc1/C=C/c1n[nH]c2ccccc12` [Compound 105, (E)-N-{5-dimethylamino-2-[2-(1H-indazol-3-yl)vinyl]phenyl}-3-methylthiophene-2-carboxamide], the inhibition at 10 µM in experiment [1] (NCI-H929, 72 h) turned out to be 120%; in experiment [2] (KMS-11, 72 h) it was 120%; in experiment [3], 94.8%.

Take `CN(C)c1ccc(/C=C/c2n[nH]c3ccccc23)c(NC(=O)c2cccn2C)c1` [Compound 107, (E)-N-{5-dimethylamino-2-[2-(1H-indazol-3-yl)vinyl]phenyl}-1-methyl-1H-pyrrole-2-carboxamide]: the inhibition at 10 µM in experiment [1] (NCI-H929, 72 h) was 119%; in experiment [2] (KMS-11, 72 h), 119%; in experiment [3] it was 92.8%.

In the case of `Cc1ccsc1C(=O)Nc1ccc(O)cc1/C=C/c1n[nH]c2ccccc12` [Compound 110, (E)-N-{4-hydroxy-2-[2-(1H-indazol-3-yl)vinyl]phenyl}-3-methylthiophene-2-carboxamide], the inhibition at 10 µM in experiment [1] (NCI-H929, 72 h) turned out to be 116%; in experiment [2] (KMS-11, 72 h), 118%; in experiment [3], 96.3%.

Regarding `Cc1ccsc1C(=O)Nc1cc(C(=O)N2CCC(N)CC2)ccc1/C=C/c1n[nH]c2ccccc12` [Compound 111, (E)-N-{5-(4-aminopiperidin-1-ylcarbonyl)-2-[2-(1H-indazol-3-yl)vinyl]phenyl}-3-methylthiophene-2-carboxamide], the inhibition at 10 µM in experiment [1] (NCI-H929, 72 h) is 120%; in experiment [2] (KMS-11, 72 h), 112%; in experiment [3], 98.1%.

Turning to `Cc1ccsc1C(=O)Nc1cc(C(=O)N2CCCC2)ccc1/C=C/c1n[nH]c2ccccc12` [Compound 116, (E)-N-{2-[2-(1H-indazol-3-yl)vinyl]-5-(pyrrolidin-1-ylcarbonyl)phenyl}-3-methylthiophene-2-carboxamide], the inhibition at 10 µM is 118% in experiment [1] (NCI-H929, 72 h); 114% in experiment [2] (KMS-11, 72 h); 103% in experiment [3].

For the compound `Cc1ccsc1C(=O)Nc1cc(C(=O)N(C)C)ccc1/C=C/c1n[nH]c2ccccc12` [Compound 117, (E)-N-{5-(N,N-dimethylcarbamoyl)-2-[2-(1H-indazol-3-yl)vinyl]phenyl}-3-methylthiophene-2-carboxamide], the inhibition at 10 µM is 119% in experiment [1] (NCI-H929, 72 h); 115% in experiment [2] (KMS-11, 72 h); 101% in experiment [3].

As to `Cc1ccsc1C(=O)Nc1cc(C(=O)NC2CC2)ccc1/C=C/c1n[nH]c2ccccc12` [Compound 118, (E)-N-{5-(N-cyclopropylcarbamoyl)-2-[2-(1H-indazol-3-yl)vinyl]phenyl}-3-methylthiophene-2-carboxamide], the inhibition at 10 µM is 116% in experiment [1] (NCI-H929, 72 h); 114% in experiment [2] (KMS-11, 72 h); 102% in experiment [3].

For `Cc1ccsc1C(=O)Nc1cc(C(=O)N2CCC3(CC2)OCCO3)ccc1/C=C/c1n[nH]c2ccccc12` [Compound 119, (E)-N-{5-(1,4-dioxa-8-azaspiro[4,5]decane-8-carbonyl)-2-[2-(1H-indazol-3-yl)vinyl]phenyl}-3-methylthiophene-2-carboxamide], the inhibition at 10 µM was 117% in experiment [1] (NCI-H929), 116% in experiment [2] (KMS-11) and 102% in experiment [3].

Turning to `COC1CCN(C(=O)c2ccc(/C=C/c3n[nH]c4ccccc34)c(NC(=O)c3sccc3C)c2)CC1` [Compound 120, (E)-N-{2-[2-(1H-indazol-3-yl)vinyl]-5-(4-methoxypiperidin-1-ylcarbonyl)phenyl}-3-methylthiophene-2-carboxamide], the inhibition at 10 µM in experiment [1] (NCI-H929, 72 h) worked out at 116%; in experiment [2] (KMS-11, 72 h), 114%; in experiment [3], 97.5%.

With `Nc1ccc(C(=O)Nc2cc3c(cc2/C=C/c2n[nH]c4ccccc24)OCO3)s1` [Compound 132, (E)-5-amino-N-{6-[2-(1H-indazol-3-yl)vinyl]benzo[1,3]dioxol-5-yl}thiophene-2-carboxamide], the inhibition at 10 µM in experiment [1] (NCI-H929, 72 h) came out at 108%; in experiment [2] (KMS-11, 72 h) it was 112%; in experiment [3], 98%.

For the compound `OCCOc1ccccc1/C=C/c1n[nH]c2ccccc12` [Compound 134, (E)-2-{2-[2-(1H-indazol-3-yl)vinyl]phenoxy}ethanol], the inhibition at 10 µM came out at 92.8% in experiment [1] (NCI-H929, 72 h); 52.5% in experiment [2] (KMS-11, 72 h); 93.4% in experiment [3] (setting [4]).

`N#Cc1ccccc1/C=C/c1n[nH]c2ccccc12` [Compound 136, (E)-2-[2-(1H-indazol-3-yl)vinyl]benzonitrile]: the inhibition at 10 µM in experiment [1] (NCI-H929, 72 h) is 87.7%; in experiment [2] (KMS-11, 72 h), 38.4%; in experiment [3] (setting [4]), 85.3%.

For `C(=C\c1n[nH]c2ccccc12)/c1ccccc1N1CCOCC1` [Compound 137, (E)-3-[2-{2-(morpholin-4-yl)phenyl]vinyl}-1H-indazole], the inhibition at 10 µM in experiment [1] (NCI-H929, 72 h) came out at 114%; in experiment [2] (KMS-11, 72 h) it was 51.2%; in experiment [3] (setting [4]), 94.3%.

In the case of `O=C(Nc1nccs1)c1ccccc1/C=C/c1n[nH]c2ccccc12` [Compound 138, (E)-2-[2-(1H-indazol-3-yl)vinyl]-N-(thiazol-2-yl)benzamide], the inhibition at 10 µM in experiment [1] (NCI-H929, 72 h) amounted to 114%; in experiment [2] (KMS-11, 72 h) it was 101%; in experiment [3] (setting [4]), 97.2%.
